Test results: patent publication EP0061208A1, “Insecticidal control of ectoparasites” (JANSSEN PHARMACEUTICA N.V., priority 1981, dated 1982)

System: lice
Assay: in-vivo experiment: single pour-on application to louse-infested sheep, evaluation of louse infestation
Parameters: key: +: numphs or adults were detected; -: no live lice were found
Conditions: single pour-on along the back, solution 5% by weight in 2-(Z-butoxyethoxy)ethanol; for louse infestation, weeks 1: after 1 week; for louse infestation, weeks 2: after 2 weeks; for louse infestation, weeks 3: after 3 weeks; for louse infestation, weeks 4: after 4 weeks; for louse infestation, weeks 6.5: after 6.5 weeks
Protocol: The efficacy of the ectoparasiticidal method and compositions of the present invention is illustrate by the following in-vivo experiment: • 4 moderately louse-infested sheep were given a single pour-on application of a solution comprising 5% by weight of cypermetrin • in 2-(Z-butoxyethoxy)ethanol. • The louse infestation was evaluated after 1, 2, 3, 4 and 6. 5 weeks. The evaluation of the louse-infestation is illustrated in table 1 wherein • + means that numphs or adults were detected, and • - means that no live lice were found.

## CC1(C)C(C=C(Cl)Cl)C1C(=O)OC(C#N)c1cccc(Oc2ccccc2)c1 (stereo not shown) [cypermetrin, [[cyano(3-phenoxyphenyl)]methyl] 2-(2,2-dichloroethenyl)-3,3-dimethylcyclopropanecarboxylate]
Dose 10 mg/kg, 10 mg/kg
  louse infestation, weeks 1: + and -
  louse infestation, weeks 2: + and -
  louse infestation, weeks 3: + and -
  louse infestation, weeks 4: + and -
Dose 10 mg/kg
  louse infestation, weeks 6.5: -
Dose 20 mg/kg
  louse infestation, weeks 1: -
  louse infestation, weeks 2: -
  louse infestation, weeks 3: -
  louse infestation, weeks 4: -
  louse infestation, weeks 6.5: -
